Experimental data: patent US11939304B1, “Ethyl 6-(5-(3-fluorophenyl)-4-phenyl-4H-1,2,4-triazol-3-ylthio)hexanoate as an antimicrobial compound” (KING FAISAL UNIVERSITY, priority 2023, dated 2024)

Key:
[1] = tested on: Bacillus cereus; assay: agar plate disc-diffusion, antibacterial inhibition zone; assay type: cell-based; conditions: nutrient agar, 37° C., 48 hours, DMSO zone subtracted
Experimental: (§1) The agar plate disc-diffusion method was applied. […] The discs were then placed onto the surface of agar plates (nutrient agar for bacteria and Sabouraud's dextrose agar for fungi) seeded with the test organism. Each plate contained 15 mL of the agar medium, previously seeded with 0.2 mL of the broth culture of each organism pregrown for 18 hours. The plates were incubated at 37° C. for 48 hours, and 72 hours for fungi. The inhibition zones were measured in mm. Discs impregnated with DMSO were used as a control, and its inhibition zone was subtracted from the tested compound actual inhibition zone.

[2] = tested on: Escherichia coli; assay: as above; assay type: cell-based; conditions: nutrient agar, 37° C., 48 hours, DMSO zone subtracted
Experimental: as §1

[3] = tested on: Pseudomonas aeruginosa; assay: as above; assay type: cell-based; conditions: nutrient agar, 37° C., 48 hours, DMSO zone subtracted
Experimental: as §1

[4] = tested on: Staphylococcus aureus; assay: as above; assay type: cell-based; conditions: nutrient agar, 37° C., 48 hours, DMSO zone subtracted
Experimental: as §1

[5] = tested on: Aspergillus flavus; assay: agar plate disc-diffusion, antifungal inhibition zone; assay type: cell-based; conditions: Sabouraud's dextrose agar, 37° C., 72 hours, DMSO zone subtracted
Experimental: as §1

[6] = tested on: Chrysosporium keratinophilum; assay: as above; assay type: cell-based; conditions: Sabouraud's dextrose agar, 37° C., 72 hours, DMSO zone subtracted
Experimental: as §1

[7] = A = concentration of comp. = 10,000 μL
[8] = B = concentration of comp. = 30,000 μL
[9] = C = concentration of comp. = 50,000 μL

## CCOC(=O)CCCCCSc1nnc(-c2cccc(F)c2)n1-c1ccccc1 [III, ethyl 6-(5-(3-fluorophenyl)-4-phenyl-4H-1,2,4-triazol-3-ylthio)hexanoate]
[1]; [7]
  inhibition zone, Bacillus Cereus, A: 28 mm
[1]; [8]
  inhibition zone, Bacillus Cereus, B: 30 mm
[1]; [9]
  inhibition zone, Bacillus Cereus, C: 41 mm
[2]; [7]
  inhibition zone, Escherichia coli, A: 27 mm
[2]; [8]
  inhibition zone, Escherichia coli, B: 35 mm
[2]; [9]
  inhibition zone, Escherichia coli, C: 50 mm
[3]; [7]
  inhibition zone, Pseudomonas aeruginosa, A: 26 mm
[3]; [8]
  inhibition zone, Pseudomonas aeruginosa, B: 29 mm
[3]; [9]
  inhibition zone, Pseudomonas aeruginosa, C: 41 mm
[4]; [7]
  inhibition zone, Staphylococcus aureus, A: 12 mm
[4]; [8]
  inhibition zone, Staphylococcus aureus, B: 19 mm
[4]; [9]
  inhibition zone, Staphylococcus aureus, C: 23 mm
[5]; [7]
  inhibition zone, Aspergillus flavus, A: 24 mm
[5]; [8]
  inhibition zone, Aspergillus flavus, B: 27 mm
[5]; [9]
  inhibition zone, Aspergillus flavus, C: 38 mm
[6]; [7]
  inhibition zone, Chrysosporium keratinophilum, A: 23 mm
[6]; [8]
  inhibition zone, Chrysosporium keratinophilum, B: 28 mm
[6]; [9]
  inhibition zone, Chrysosporium keratinophilum, C: 42 mm
other
  melting point: 107 to 109 °C
